According to patent US20240390448A1, “USE OF TRADITIONAL CHINESE MEDICINE COMPOSITION IN PREPARATION OF DRUGS FOR TREATING NEUROGENIC PULMONARY EDEMA” (SHANDONG NEW TIME PHARMACEUTICAL CO., LTD., priority 2021, published 2024):

Test system: spinal cord injury-induced neurogenic pulmonary edema
Test: Model of spinal cord injury-induced neurogenic pulmonary edema (laminectomy and spinal cord injury)
Type: in vivo, ICR mice
Conditions: mice, example 1 granule 18 g/kg intragastric, dexamethasone 0.025 mg/kg intramuscular, 2 consecutive days from 24 h after molding, lungs taken on 3rd day, n = 8, x ± s
Source text: It is a typical molding method of an animal with neurogenic pulmonary edema by performing laminectomy on a rate to cause spine injury and thus inducing pulmonary edema of the mouse. The molding method is simple and easy to implement and high in success rate.
4-6 week old male ICR mice weighed 23-25 g were provided by the Lunan Pharmaceutical Co., Ltd and adaptively fed for one week before an experiment.
40 mice were taken and randomly divided into a sham surgery group, a model group, a dexamethasone group, an example 1 granule group, and a dexamethasone+example 1 granule group, with 8 mice in each group. The rats in the sham surgery group were subjected to laminectomy without spinal cord injury, while the rats in the model group and each administration group were subjected to laminectomy and spinal cord injury. […] The animals were anesthetized and sacrificed on the 3rd of the molding, the lungs were taken out, the wet weight was weighed, the lungs were placed in a 60° C. oven for drying for 48 h and taken out, the dry weight was weighed, and a ratio of wet weight/dry weight was calculated.

Structure (SMILES): C[C@@H]1C[C@H]2[C@@H]3CCC4=CC(=O)C=C[C@]4(C)[C@@]3(F)[C@@H](O)C[C@]2(C)[C@@]1(O)C(=O)CO [Dexamethasone, dexamethasone]
- Lung wet weight/dry weight: 4.92 ± 0.13
